Measurements reported in US8642784B2, “Biologically active compound N-[3-(4-nitrophenylamino)-indole-2-ilmethylene]aminoguanidine hydrochloride with anti-inflammatory activity” (priority 2010, dated 2014).
Where two headings read alike, the source gives them in different places. Marks after values point to notes of the source that are not given here.

How the values were obtained:
mice stomach [1] = format: in vivo; details: for Ulcerogenic effects of drugs of comparison: mice ulceration models, summary of table 4; for Average ulcerogenic index (4-point scale) of chronic administration of pharmacological dose: mice, per os 7 days, compound 2 200 mg/kg, indomethacin 20 mg/kg, voltaren 50 mg/kg, aminoguanidine 200 mg/kg
Protocol: (§1) Studies were performed according to the following scheme: • 1. […] Study of the compounds' ulcerogenic action using pharmaceutical dose during 7 days of administration. • 3. Aggravation of ulcerogenic effects of studied compounds by 0.6H hydrochloric acid. • 4. Aggravation of ulcerogenic effects of studied compounds by the known NSAIDs (indomethacin). 1.
(§2) Ulcerogenic effect was assessed using 4-point scale: 0—no damage; 0.5—hyperemia; 1—insignificant damage (1 or 2 small bleedings); 2—multiple damage (erosions, small bleedings); 3—significant and multiple damage (erosions, bleedings); 4—severe damage, affecting all gastric mucosa (massive bleedings, erosions, perforations).
After 7 days the animals were sacrificed by CO2, their stomachs extracted and the number of ulcers counted.
(§3) Drugs of comparison: indomethacin 20 mg/kg, voltaren—50 mg/kg and aminoguanidine—200 mg/kg. Each test group had 10 animals.

mice stomach [2] = assay: Aggravation of ulcerogenic effects by 0.6H hydrochloric acid; format: in vivo; details: compound 2 100 mg/kg, indomethacin 20 mg/kg, voltaren 50 mg/kg, aminoguanidine 200 mg/kg, 1 hour before 0.6H HCl 5 ml/kg, after 4 hours
Protocol: as §1, §2
(§4) Male mice with body mass 23-24 g were deprived of food for 24 hours, water access was not limited.
as §3

[3] = test system: carrageenan-induced peritonitis in mice; assay: Carrageenan-induced peritonitis in mice, volume of exudate; format: in vivo
Protocol: Research was carried out by a method described in [5]. Experiments were performed using male mice with body mass 23-24 g, in groups of 10 animals. […] The results were processed using variation statistics methods for biological research (mean standard error, means were calculated using Student's t-distribution).

[4] = test system: LPS-induced peritonitis in mice; assay: LPS-induced peritonitis in mice, volume of exudate; format: in vivo
Protocol: Activity was studies using the methods listed in “Methodical recommendations on experimental (preclinical) research of new nonsteroidal anti-inflammatory drugs” for new compounds screening, in animal models of peritonitis induced by lipopolysaccharide (LPS) and carrageenan.
(§5) Anti-exudative action was studied in male mice with body mice 22.0-23.0 g. Peritonitis was induced by intraperitoneal administration of lipopolysaccharide (LPS), produced from Escherichia coli (Sigma) 1.0 mg/kg, as described in [6]: after 4 hours the animals were sacrificed by CO2, their peritoneal cavity opened and the volume of exudate was measured in ml. Studied compounds and drugs of comparison were administered per os one hour before LPS, control group was composed of mice receiving 0.3 ml of saline before LPS administration. Each group had 10 animals.
(§6) The results were processed using variation statistics methods for biological research (mean standard error, means were calculated using Student's t-distribution).

[5] = test system: LPS-induced peritonitis in rats; assay: LPS-induced peritonitis in rats, volume of exudate; format: in vivo; details: rats; for ED50: LPS-induced peritonitis, per os
Protocol: as §5, with “male rate” for “male mice”, “body mass 170.0-180.0” for “body mice 22.0-23.0”, “coli (Sigma)—1.0 mg/kg” for “coli (Sigma) 1.0 mg/kg,”, “of rats” for “of mice”, “had 7” for “had 10”
as §6

mice stomach [6] = assay: Aggravation of ulcerogenic effect by indomethacin; format: in vivo; details: mice; compound 2 100 mg/kg, voltaren 50 mg/kg, aminoguanidine 200 mg/kg, 1 hour before indomethacin 20 mg/kg; after 5 hours
Protocol: as §1, §2, §4
Drugs of comparison: voltaren—50 mg/kg and aminoguanidine—200 mg/kg. Each test group had 10 animals.

[7] = biological target: inducible isoenzymes of NO-synthase (Homo sapiens, UniProt P35228); details: most in vitro systems; cited from earlier work
animal models = details: in vivo; cited from earlier work
[8] = test system: constitutive forms of NO-synthase; details: compared with L-NMMA; cited from earlier work

| SMILES | Ulcerogenic effects of drugs of comparison (mice stomach [1]) | Average ulcerogenic index (4-point scale) of chronic administration of pharmacological dose (mice stomach [1]) | Average ulcerogenic index (4-point scale) of combining the studied compounds with hydrochloric acid (mice stomach [2]) | Anti-inflammatory activity in carrageenan-induced peritonitis model, % of control ([3]; 50.0 mg/kg per os) | Anti-inflammatory activity in carrageenan-induced peritonitis model, % of control ([3]; 100.0 mg/kg per os) | Anti-inflammatory activity in LPS-induced peritonitis model, % of control ([4]; 50.0 mg/kg per os) | Anti-inflammatory activity in LPS-induced peritonitis model, % of control ([4]; 100.0 mg/kg per os) | Anti-inflammatory activity in LPS-induced peritonitis model, % of control ([5]; 25.0 mg/kg per os) | Anti-inflammatory activity in LPS-induced peritonitis model, % of control ([5]; 50.0 mg/kg per os) | Anti-inflammatory activity in LPS-induced peritonitis model, % of control ([5]; 75.0 mg/kg per os) | Average ulcerogenic index (4-point scale) of combining the studied compounds with indomethacin (mice stomach [6]) | other results |
| --- | --- | --- | --- | --- | --- | --- | --- | --- | --- | --- | --- | --- |
| COc1ccc2c(c1)c(CC(=O)O)c(C)n2C(=O)c1ccc(Cl)cc1 [Indomethacin, indomethacin] | had ulcerogenic effects | 1.15 | 2.4 |  |  |  |  |  |  |  |  |  |
| O=C(O)Cc1ccccc1Nc1c(Cl)cccc1Cl [Voltaren, sodium diclofenac] | had ulcerogenic effects | 0.35 | 0.55 | 90.2* % of control | 100.0* % of control | 95.6* % of control | 100.0* % of control | 65.0* % of control | 84.0* % of control | 100.0* % of control | 2.5 | Anti-inflammatory activity in carrageenan-induced peritonitis model, % of control ([3]; 25.0 mg/kg per os): 80.4* % of control; Anti-inflammatory activity in LPS-induced peritonitis model, % of control ([4]; 25.0 mg/kg per os): 82.2* % of control; ED50 ([5]; Rattus norvegicus, po, read-out: ED50): 20 ± 1.5 mg/kg; Anti-inflammatory activity in LPS-induced peritonitis model, % of control ([5]; 10.0 mg/kg per os): 22.0 % of control |
| N=C(N)NN [Aminoguanidine, N-aminoguanidine] |  | 0 | 0.15 | 25.5* % of control | 70.6* % of control | 51.1* % of control | 73.3* % of control | 4.0 % of control | 22.0* % of control | 58.0* % of control | 0.19 | Inhibition of inducible isoenzymes of NO-synthase [7]: equally effective in inhibiting inducible isoenzymes; Anti-inflammatory activity in carrageenan-induced peritonitis model, % of control ([3]; 200.0 mg/kg per os): 84.3* % of control; Anti-inflammatory activity in LPS-induced peritonitis model, % of control ([4]; 200.0 mg/kg per os): 91.1* % of control; Effect in animal models of inflammation, septic shock, endotoxin (animal models): reduces the severity of inflammation and septic shock, improves survival during endotoxin administration; Anti-inflammatory activity in LPS-induced peritonitis model, % of control ([5]; 100.0 mg/kg per os): 78.0* % of control; Anti-inflammatory activity in LPS-induced peritonitis model, % of control ([5]; 200.0 mg/kg per os): 100.0* % of control; ED50 [5]: 70.0 ± 2.5 mg/kg; Activity towards constitutive forms of NO-synthase [8]: much less active towards constitutive forms |
